Reference: the supplement of paper PMC10307832

Key:
Assay in all cases: relative viability (nuclei count vs DMSO), 5 days (fraction); higher = more cells survive
[1] = compound: C/C(=N\NC(=S)N1CCC1)/C2=CC=CC=N2 + CCNC(=O)c1noc(-c2cc(C(C)C)c(O)cc2O)c1-c1ccc(CN2CCOCC2)cc1 [Luminespib] (partner 0.01 µM)
Method in brief: (§1)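 Each reported value is a median over duplicate plates. It expresses relative viability: treated-well nuclei count divided by vehicle-well nuclei count. Lung cancer cell lines in 1536-well plates were dosed by pin tool a day after seeding, alone with one drug or with a fixed anchor-drug dose plus five library-drug doses (not always all listed) in √10 steps, and nuclei were counted after 5 days.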

[2] = compound: C/C(=N\NC(=S)N1CCC1)/C2=CC=CC=N2 + COc1cc2c(Oc3ccc(NC(=O)C4(C(=O)Nc5ccc(F)cc5)CC4)cc3F)ccnc2cc1OCCCN1CCOCC1 [Foretinib] (partner 0.25 µM)
Method in brief: as §1

[3] = compound: C/C(=N\NC(=S)N1CCC1)/C2=CC=CC=N2 + Cc1nc(Nc2ncc(C(=O)Nc3c(C)cccc3Cl)s2)cc(N2CCN(CCO)CC2)n1 [Dasatinib] (partner 0.075 µM)
Method in brief: as §1

[4] = compound: C/C(=N\NC(=S)N1CCC1)/C2=CC=CC=N2 + Nc1ncn([C@H]2C[C@H](O)[C@@H](CO)O2)c(=O)n1 [Decitabine] (partner 2 µM)
Method in brief: as §1

Cell Line | relative viability ([1]; first compound 0.05 µM) | relative viability ([1]; first compound 0.1581 µM) | relative viability ([1]; first compound 0.5 µM) | relative viability ([1]; first compound 1.581 µM) | relative viability ([1]; first compound 5 µM) | relative viability ([2]; first compound 0.05 µM) | relative viability ([2]; first compound 0.1581 µM) | relative viability ([2]; first compound 0.5 µM) | relative viability ([2]; first compound 1.581 µM) | relative viability ([2]; first compound 5 µM) | relative viability ([3]; first compound 0.05 µM) | relative viability ([3]; first compound 0.1581 µM) | relative viability ([3]; first compound 0.5 µM) | relative viability ([3]; first compound 1.581 µM) | relative viability ([3]; first compound 5 µM) | relative viability ([4]; first compound 0.05 µM) | relative viability ([4]; first compound 0.1581 µM) | relative viability ([4]; first compound 0.5 µM) | relative viability ([4]; first compound 1.581 µM) | relative viability ([4]; first compound 5 µM)
NCI-H1395 | 0.305 | 0.338 | 0.332 | 0.349 | 0.337 | 0.381 | 0.368 | 0.369 | 0.351 | 0.349 | 0.27 | 0.362 | 0.315 | 0.29 | 0.326 | 0.331 | 0.36 | 0.357 | 0.354 | 0.377
NCI-H1437 | 0.238 | 0.215 | 0.216 | 0.18 | 0.14 | 0.242 | 0.261 | 0.229 | 0.192 | 0.162 | 0.0967 | 0.128 | 0.0689 | 0.0833 | 0.122 | 0.263 | 0.248 | 0.246 | 0.199 | 0.172
NCI-H1650 | 0.182 | 0.185 | 0.2 | 0.168 | 0.174 | 0.185 | 0.225 | 0.175 | 0.205 | 0.215 | 0.154 | 0.172 | 0.167 | 0.157 | 0.183 | 0.189 | 0.141 | 0.141 | 0.206 | 0.186
NCI-H1651 | 0.13 | 0.157 | 0.127 | 0.0971 | 0.138 | 0.136 | 0.142 | 0.127 | 0.0965 | 0.107 | 0.195 | 0.174 | 0.126 | 0.0657 | 0.0655 | 0.127 | 0.114 | 0.103 | 0.0618 | 0.0864
NCI-H1666 | 0.386 | 0.391 | 0.347 | 0.311 | 0.287 | 0.439 | 0.365 | 0.345 | 0.348 | 0.331 | 0.335 | 0.307 | 0.301 | 0.28 | 0.296 | 0.367 | 0.368 | 0.411 | 0.329 | 0.375
NCI-H1734 | 0.123 | 0.105 | 0.116 | 0.118 | 0.117 | 0.166 | 0.162 | 0.203 | 0.129 | 0.102 | 0.152 | 0.12 | 0.148 | 0.112 | 0.089 | 0.136 | 0.152 | 0.132 | 0.123 | 0.102
NCI-H1755 | 0.191 | 0.184 | 0.198 | 0.243 | 0.275 | 0.518 | 0.35 | 0.283 | 0.268 | 0.258 | 0.16 | 0.202 | 0.157 | 0.198 | 0.247 | 0.503 | 0.664 | 0.311 | 0.271 | 0.346
NCI-H1793 | 0.214 | 0.142 | 0.103 | 0.119 | 0.141 | 0.229 | 0.382 | 0.157 | 0.143 | 0.188 | 0.113 | 0.145 | 0.151 | 0.121 | 0.145 | 0.276 | 0.193 | 0.218 | 0.138 | 0.166
NCI-H1915 | 0.126 | 0.108 | 0.111 | 0.121 | 0.107 | 0.366 | 0.675 | 0.216 | 0.192 | 0.173 | 0.117 | 0.132 | 0.123 | 0.115 | 0.142 | 0.115 | 0.123 | 0.144 | 0.124 | 0.148
NCI-H1944 | 0.527 | 0.265 | 0.143 | 0.124 | 0.113 | 0.624 | 0.38 | 0.181 | 0.143 | 0.166 | 0.139 | 0.151 | 0.153 | 0.128 | 0.127 | 0.225 | 0.413 | 0.158 | 0.116 | 0.143
NCI-H1975 | 0.118 | 0.148 | 0.206 | 0.107 | 0.151 | 0.137 | 0.143 | 0.129 | 0.124 | 0.124 | 0.104 | 0.0967 | 0.0846 | 0.0879 | 0.0899 | 0.151 | 0.18 | 0.154 | 0.156 | 0.184
NCI-H1993 | 0.455 | 0.496 | 0.517 | 0.428 | 0.509 | 0.542 | 0.516 | 0.567 | 0.631 | 0.526 | 0.433 | 0.525 | 0.525 | 0.434 | 0.435 | 0.42 | 0.497 | 0.342 | 0.431 | 0.381
NCI-H2009 | 0.128 | 0.146 | 0.15 | 0.186 | 0.127 | 0.143 | 0.183 | 0.186 | 0.213 | 0.184 | 0.112 | 0.143 | 0.145 | 0.122 | 0.103 | 0.114 | 0.155 | 0.144 | 0.136 | 0.117
NCI-H2023 | 0.067 | 0.0631 | 0.0621 | 0.0569 | 0.0694 | 0.0821 | 0.0789 | 0.0763 | 0.0636 | 0.077 | 0.0588 | 0.071 | 0.0685 | 0.0516 | 0.0624 | 0.0753 | 0.0791 | 0.067 | 0.0569 | 0.0755
NCI-H2085 | 0.236 | 0.274 | 0.281 | 0.234 | 0.211 | 0.322 | 0.373 | 0.296 | 0.269 | 0.253 | 0.209 | 0.219 | 0.27 | 0.259 | 0.229 | 0.255 | 0.324 | 0.358 | 0.309 | 0.376
NCI-H2087 | 0.116 | 0.0944 | 0.159 | 0.142 | 0.137 | 0.185 | 0.178 | 0.193 | 0.15 | 0.121 | 0.129 | 0.15 | 0.15 | 0.107 | 0.0833 | 0.136 | 0.0973 | 0.107 | 0.103 | 0.0802
